Patent publication US10718029B2, “Treatment targeting oncology and neurodegeneration” (priority 2008, dated 2020)
Like-named read-outs stand apart in the source and are kept apart here.

Assays:
TGF Béta = details: publication of Lecanda and Gold, March 2009; cited from earlier work
PKCε = target: T1, PKCε (Homo sapiens, UniProt Q02156); test: Western blotting of PKCε expression as a function of the duration of TPA treatment; format: cell-based; details: MCF-7 cells
T1 construct: endogenous in cells; host or cells: MCF-7
T1 sequence (Q02156 1-737): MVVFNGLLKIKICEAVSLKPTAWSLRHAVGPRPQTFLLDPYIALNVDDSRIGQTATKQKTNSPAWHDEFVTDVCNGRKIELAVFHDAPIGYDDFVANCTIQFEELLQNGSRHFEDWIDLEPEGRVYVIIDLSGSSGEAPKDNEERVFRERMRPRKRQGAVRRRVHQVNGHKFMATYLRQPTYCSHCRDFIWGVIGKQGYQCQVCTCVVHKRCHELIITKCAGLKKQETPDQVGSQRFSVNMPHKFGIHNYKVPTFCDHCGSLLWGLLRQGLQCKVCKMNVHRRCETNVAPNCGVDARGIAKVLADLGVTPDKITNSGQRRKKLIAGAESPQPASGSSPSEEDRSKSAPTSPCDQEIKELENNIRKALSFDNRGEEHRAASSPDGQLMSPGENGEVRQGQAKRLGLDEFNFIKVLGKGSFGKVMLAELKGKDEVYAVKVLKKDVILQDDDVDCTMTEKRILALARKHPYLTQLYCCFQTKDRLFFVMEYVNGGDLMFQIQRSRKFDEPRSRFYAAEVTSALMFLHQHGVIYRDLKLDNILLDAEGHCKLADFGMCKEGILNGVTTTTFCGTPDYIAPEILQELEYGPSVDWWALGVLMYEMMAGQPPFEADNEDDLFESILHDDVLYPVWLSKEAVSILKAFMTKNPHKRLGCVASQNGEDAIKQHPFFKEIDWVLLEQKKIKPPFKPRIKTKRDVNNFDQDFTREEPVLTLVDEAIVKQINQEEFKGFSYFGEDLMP
Description: (§1) Western blotting study: Given that the protein sequence of LIV21 has putative PKCε phosphorylation sites, including two specific for PKCε, the inventor tested the variation in the expression of this PKC as a function of the duration of TPA treatment. […] The expression of PKCzeta (PKCζ) is used as an internal control since it is not sensitive to TPA.

PKCzeta (PKCζ) = test: Western blotting of PKCzeta expression (internal control) under TPA treatment; format: cell-based, human
Description: as §1

LIV21 [1] = test: Cell fractionation, LIV21 expression profile in cytoplasm and nuclear fraction; format: cell-based, human; details: cultures treated with peptide at 2 μM compared with TPA-treated cultures
Description: The study of the specific role of the PKC epsilon on the nuclear translocation of Liv 21F can use a peptide which inhibits function PKC epsilon and the translocation like previously described but also according to the protocol of reference of Si RNA of PKC epsilon. The profile of expression observed corresponds to a doublet of tapes in the cytoplasm with approximately 51 KD (and with a tape of 64 kD according to the siRNA used) whereas it corresponds only to one simple tape with 50 kD in the nuclear fraction.

E2F4 = test: Fluorescence localization of E2F4 in nuclei during TPA treatment; format: cell-based, human; details: TPA 25 nM
Experimental: (§2) During this TPA treatment (25 nM), when E2F4, p130 and LIV21 were studied (green fluorescence) in the nuclei labelled (DNA) with propidium iodide (red fluorescence), the following were observed: […]

p130 = test: Fluorescence localization of p130 in nuclei during TPA treatment; format: cell-based, human; details: TPA 25 nM, after 12 h
Experimental: as §2

LIV21 [2] = test: Fluorescence localization of LIV21 in nuclei during TPA treatment; format: cell-based, human; details: TPA 25 nM, after 12 h
Experimental: as §2

LIV21 [3] = details: TPA-treated MCF-7 lines; cited from earlier work
MCF-7 line = details: cited from earlier work
normal breast cells = details: background statement; cited from earlier work
cells of benign tumors = details: background statement; cited from earlier work
estrogen receptors (ERs) = details: MCF-7 cells, background statement; cited from earlier work
protein kinases C (PKCs) = details: MCF-7 cells, background statement; cited from earlier work
MCF-7 cells = details: background statement; cited from earlier work
LIV21 [4] = test: Immunocytochemistry of the nuclear translocation of LIV21; format: cell-based, human; details: peptide 2 μM, 12 h, compared with TPA 25 nM
Description: To determine the specific action of PKCε on the translocation of LIV21, the crops were discussed with a peptide, selective antagonist of the function and translocation of this PKC (EAVSLKPT (SEQ ID No 6), and the results were compared with those obtained by processing with TP A. This peptide is recognized by the enzyme and links themselves as a substrate amended to the level of its catalytic site. Not phosphorylable, he acts as a specific inhibitor of the activity of PKCε.
The effect of the selective inhibition of the activity of PKCε on the nuclear translocation of LIV21 was studied by immunocytochemistry.

PKC = target: T2, PKC (Homo sapiens, UniProt Q02156); details: PKC-specific inhibitory peptide; cited from earlier work
T2 construct: endogenous in cells; host or cells: MCF-7
T2 sequence (Q02156 1-737): T1 sequence (Q02156 1-737)

Compound | TGF Béta events (increase and nuclear accumulation of p27 via smad 2 and smad 3) (TGF Béta) | PKCε expression (PKCε) | expression of PKCzeta (PKCζ) (PKCzeta (PKCζ)) | LIV21 expression profile (LIV21 [1]) | E2F4 localization (E2F4; after 12 h) | E2F4 localization (E2F4; after 48 h) | E2F4 localization (E2F4; at 72 h) | p130 localization (p130) | LIV21 localization (LIV21 [2]) | LIV21 localization (LIV21 [3]) | cancerous proliferation (MCF-7 line; TPA-treated MCF-7 lines) | cell differentiation (MCF-7 line; TPA-treated MCF-7 lines) | proliferation of the cells of human mammary tumor lines such as the MCF-7 line (MCF-7 line; background statement) | growth of normal breast cells (normal breast cells) | proliferation of the cells of benign tumors (cells of benign tumors) | expression and function of estrogen receptors (ERs) (estrogen receptors (ERs)) | translocation of protein kinases C (PKCs) from the cytosol to the membranes (protein kinases C (PKCs)) | migratory capacity of MCF-7 cells in vitro (MCF-7 cells) | nuclear translocation of LIV21 (LIV21 [4]) | PKC activity versus expression (PKC)
Fc1ccc(Cl)cc1-c1nc(Nc2ccncc2)c2nccnc2n1 [SD208] | All these events are locked | – | – | – | – | – | – | – | – | – | – | – | – | – | – | – | – | – | – | –
CCCCCCCCCCCCCC(=O)O[C@@H]1[C@@H](C)[C@@]2(O)[C@@H](C=C(CO)C[C@]3(O)C(=O)C(C)=C[C@@H]23)[C@H]2C(C)(C)[C@]12OC(C)=O [TPA, 12-0-tetradecanoyl phorbol-13-10 sumoate] | – | decreases from 30 min | not sensitive | doublet in the cytoplasm and of a single band in the nuclear fraction | intranuclear green fluorescence signals | comparable localization | disappears from the nucleus | intranuclear green fluorescence signals | intranuclear green fluorescence signals | translocated into the nucleus | inhibition of cancerous proliferation | cell differentiation | drastically inhibits the proliferation | activates the growth | does not modify the proliferation | greatly and rapidly inhibits | induces the time- and dose-dependent translocation | increases the migratory capacity | – | –
EAVSLKPT [PKC inhibiting peptide] | – | – | – | doublet in the cytoplasm and of a single band in the nuclear fraction | – | – | – | – | – | – | – | – | – | – | – | – | – | – | effect identical to that of TPA | it was the activity and not the expression of PKC which was inhibited
